Measured values reported in ChEMBL document CHEMBL4483862, “Open-source discovery of chemical leads for next-generation chemoprotective antimalarials” (2018).

System: Plasmodium berghei
Assay: Luciferase/luciferin-expressing antifolate-resistant parasites were used to infect a culture of HepG2 cells that were pre-incubated with compounds. Infected hepatocytes emit light due to the luciferase reaction. Assay results are presented as the percent inhibition of light emission compared to control. […]
Format: functional
Conditions: sporozoite; for IC90: read-out: LUCIFERASE INFECTION ASSAY - IC90
[1] = read-out: LUCIFERASE INFECTION ASSAY - IC50

For CCN(CC)c1ccc(NC(=O)CCc2ccccc2)cc1C, the IC50 (HEPG2TOX_HILL_SLOPE 3.47, HEPG2TOX_R_SQUARED 0.947, PBLUC_HILL_SLOPE 2.46, PBLUC_R_SQUARED 0.836, read-out: LUCIFERASE INFECTION ASSAY - IC50) was 2.79 µM and the IC90 was 6.81 µM.
With O=C(Cc1nc(=O)c2c3c(sc2[nH]1)CCCC3)c1c[nH]c2ccccc12 the IC50 [1] was > 10 µM and the IC90 was > 10 µM.
In the case of Cc1c(C(=O)OC(C)C(=O)Nc2ccc(F)cc2Cl)sc2nc3n(c(=O)c12)CCC3 (stereo unspecified), the IC50 (FFLUC_HILL_SLOPE 12.5, FFLUC_R_SQUARED 0.0754, PBLUC_HILL_SLOPE 2.35, PBLUC_R_SQUARED 0.872, read-out: LUCIFERASE INFECTION ASSAY - IC50) is reported as 5.4 µM and the IC90 is reported as > 10 µM.
O=C(NC1CCCC1)c1ccc(-c2cn3c(-c4ccc(Cl)cc4)cnc3cn2)cc1 gave an IC50 (HEPG2TOX_HILL_SLOPE 3.94, HEPG2TOX_R_SQUARED 0.381, PBLUC_HILL_SLOPE 3.66, PBLUC_R_SQUARED 0.738, read-out: LUCIFERASE INFECTION ASSAY - IC50) of 1.91 µM and an IC90 of 3.49 µM.
O=C(Nc1ccc(OCc2nnnn2-c2ccccc2)cc1)c1ccccc1 was tested, and the IC50 [1] was > 8.89 µM and the IC90 was > 8.89 µM.
O=C(NCCCn1cnc2ccccc21)c1[nH]nc2ccccc12 was tested, and the IC50 (HEPG2TOX_HILL_SLOPE 14.9, HEPG2TOX_R_SQUARED 0.872, PBLUC_HILL_SLOPE 4.15, PBLUC_R_SQUARED 0.429, read-out: LUCIFERASE INFECTION ASSAY - IC50) was 6.32 µM and the IC90 was > 10 µM.
With CCn1c(NC(=O)c2cccnc2Oc2ccccc2)nc2ccccc21 the IC50 [1] was > 10 µM and the IC90 was > 10 µM.
For O=C(/C=C/c1ccc(Cl)c(Cl)c1)NNC(=O)C1COc2ccccc2O1 (stereo unspecified), the IC50 (PBLUC_HILL_SLOPE 3.24, PBLUC_R_SQUARED 0.588, read-out: LUCIFERASE INFECTION ASSAY - IC50) was 4.61 µM and the IC90 was 9.08 µM.
For Cc1nn(-c2ccccc2)c(C)c1-c1nc(-c2ccccc2)no1, the IC50 (FFLUC_HILL_SLOPE 123, FFLUC_R_SQUARED 0.665, PBLUC_HILL_SLOPE 0.902, PBLUC_R_SQUARED 0.808, read-out: LUCIFERASE INFECTION ASSAY - IC50) was 0.508 µM and the IC90 was 5.81 µM.
With CCN(CC(=O)Nc1cccc(OC)c1)C(=O)C1Cc2ccccc2O1 (stereo unspecified) the IC50 [1] was > 10 µM and the IC90 was > 10 µM.
For COc1ccc(CNC(=O)Cn2ncc(Cl)c(Cl)c2=O)cc1OC, the IC50 [1] was > 10 µM and the IC90 was > 10 µM.
CNC(=O)c1sc2scc(C)c2c1C was tested, and the IC50 [1] was > 14.6 µM and the IC90 was > 14.6 µM.
For Cc1cc(C(=O)CN(C)Cc2nc(=O)c3ccccc3[nH]2)c(C)n1CC1COc2ccccc2O1 (stereo unspecified), the IC50 [1] was 0.371 µM and the IC90 was > 10 µM.
In the case of O=C(Nc1cccc(Cl)c1)Nc1ccccc1SCc1ncc(C(F)(F)F)cc1Cl, the IC50 [1] is reported as > 6.99 µM and the IC90 is reported as > 6.99 µM.
In the case of COc1cccc(C(=O)Nc2cccc(Nc3ccc(-c4cccc(NC(C)=O)c4)cn3)c2)c1, the IC50 [1] is reported as > 7.29 µM and the IC90 is reported as > 7.29 µM.
For Cc1cc(/C=N/Nc2nc3ccccc3[nH]2)c(C)n1-c1ccc(Cl)c(C(F)(F)F)c1, the IC50 (FFLUC_HILL_SLOPE 2.14, FFLUC_R_SQUARED 0.676, PBLUC_HILL_SLOPE 2.82, PBLUC_R_SQUARED 0.68, read-out: LUCIFERASE INFECTION ASSAY - IC50) was 1.86 µM and the IC90 was 4.05 µM.
Molecule COc1ccc(NS(=O)(=O)c2cccc(C(=O)N/N=C(\c3ccccc3)c3ccccn3)c2)cc1 has an IC50 (FFLUC_HILL_SLOPE 6.58, FFLUC_R_SQUARED 0.0766, HEPG2TOX_HILL_SLOPE 0.953, HEPG2TOX_R_SQUARED 0.956, PBLUC_HILL_SLOPE 1.34, PBLUC_R_SQUARED 0.562, read-out: LUCIFERASE INFECTION ASSAY - IC50) of 1.29 µM and an IC90 of 6.62 µM.
For CN(C)C(=O)c1nnsc1S(=O)(=O)c1ccc(Cl)cc1, the IC50 [1] was 8.45 µM and the IC90 was > 9.95 µM.
For COc1cc(OC)cc(-c2cn3c(-c4cccc(OC(F)(F)F)c4)cnc3cn2)c1, the IC50 (PBLUC_HILL_SLOPE 10.9, PBLUC_R_SQUARED 0.156, read-out: LUCIFERASE INFECTION ASSAY - IC50) was > 7.94 µM and the IC90 was > 7.94 µM.
Molecule COc1cccc(-c2ccc3nnc(-c4ccc5c(c4)OCO5)n3c2)c1 has an IC50 (HEPG2TOX_HILL_SLOPE 1.68, HEPG2TOX_R_SQUARED 0.984, PBLUC_HILL_SLOPE 2.05, PBLUC_R_SQUARED 0.784, read-out: LUCIFERASE INFECTION ASSAY - IC50) of 0.337 µM and an IC90 of 0.981 µM.
CC(C)c1cc(NCCCN2CCOCC2)n2ncc(-c3ccccc3)c2n1 was tested, and the IC50 (PBLUC_HILL_SLOPE 2.21, PBLUC_R_SQUARED 0.515, read-out: LUCIFERASE INFECTION ASSAY - IC50) was 4.34 µM and the IC90 was > 8.7 µM.
In the case of CC(=O)c1ccc(OCC(O)CN2CCC(c3c[nH]c4ccccc34)CC2)cc1 (stereo unspecified), the IC50 [1] is reported as 5.84 µM and the IC90 is reported as > 10 µM.
NC(=O)c1ccc(-c2cc(-c3ccc(F)c(Cl)c3)cnc2N)cc1 gave an IC50 (PBLUC_HILL_SLOPE 12.5, PBLUC_R_SQUARED 0.242, read-out: LUCIFERASE INFECTION ASSAY - IC50) of 3.7 µM and an IC90 of 4.41 µM.
COc1ccccc1C(=O)/C=C/c1ccc(N2CCCCC2)c([N+](=O)[O-])c1 was tested, and the IC50 (HEPG2TOX_HILL_SLOPE 11.8, HEPG2TOX_R_SQUARED 0.223, read-out: LUCIFERASE INFECTION ASSAY - IC50) was > 10 µM and the IC90 was > 10 µM.
O=C(COC(=O)/C=C/c1ccc(I)o1)Nc1cc(S(=O)(=O)N2CCCCC2)ccc1Cl was tested, and the IC50 (FFLUC_HILL_SLOPE 7.36, FFLUC_R_SQUARED 0.327, read-out: LUCIFERASE INFECTION ASSAY - IC50) was > 10 µM and the IC90 was > 10 µM.
COc1cc2c(cc1OC)C1(NCC2)C(=O)Nc2ccccc21 (stereo unspecified) was tested, and the IC50 [1] was > 10 µM and the IC90 was > 10 µM.
In the case of CS(=O)(=O)c1ccc2nc(NC(=O)c3cc(-c4ccccc4)nn3-c3ccccc3)sc2c1, the IC50 (PBLUC_HILL_SLOPE 1.63, PBLUC_R_SQUARED 0.444, read-out: LUCIFERASE INFECTION ASSAY - IC50) is reported as 4.67 µM and the IC90 is reported as > 10 µM.
For COc1cccc2c1N(S(=O)(=O)c1ccccc1C(F)(F)F)CCC2, the IC50 [1] was > 2 µM and the IC90 was > 2 µM.
With Cc1nc(N(C)Cc2c(C)nn(C3CCS(=O)(=O)C3)c2C)c2c(-c3ccccc3)csc2n1 (stereo unspecified) the IC50 (HEPG2TOX_HILL_SLOPE 23.3, HEPG2TOX_R_SQUARED 0.0131, PBLUC_HILL_SLOPE 4.31, PBLUC_R_SQUARED 0.318, read-out: LUCIFERASE INFECTION ASSAY - IC50) was 6.76 µM and the IC90 was > 10 µM.
Cc1ccc(C(C#N)c2ccc(NN)nn2)cc1 (stereo unspecified) was tested, and the IC50 (FFLUC_HILL_SLOPE 3.94, FFLUC_R_SQUARED 0.836, read-out: LUCIFERASE INFECTION ASSAY - IC50) was > 13.8 µM and the IC90 was > 13.8 µM.
CN(C)c1ccccc1-c1cn2c(-c3ccc4ncccc4c3)cnc2cn1 was tested, and the IC50 (HEPG2TOX_HILL_SLOPE 7.2, HEPG2TOX_R_SQUARED 0.832, read-out: LUCIFERASE INFECTION ASSAY - IC50) was > 9.03 µM and the IC90 was > 9.03 µM.
In the case of CCOC(=O)/C(=N\Nc1cccc(C(F)(F)F)c1)NC(C)c1ccccc1 (stereo unspecified), the IC50 (PBLUC_HILL_SLOPE 1.36, PBLUC_R_SQUARED 0.117, read-out: LUCIFERASE INFECTION ASSAY - IC50) is reported as > 10 µM and the IC90 is reported as > 10 µM.
In the case of CC(C)(C)OC(=O)N[C@@H](Cc1ccccc1)c1n[nH]c(=S)n1CC1CCCO1 (stereo partly specified), the IC50 [1] is reported as > 8.16 µM and the IC90 is reported as > 8.16 µM.
